Test results as given in patent publication US20080206231A1, “Compositions and Methods for Treating Disease” (OREGON HEALTH AND SCIENCE UNIVERSITY, priority 2004, published 2008).

Key:
MAPK kinase (MEK) = conditions: Harmon et al., 2004; cited from earlier work
insulin signaling = assay: EGFR inhibitor study: insulin signaling (ERK and Akt/PKB activation) in control MCF-7 cells; assay type: cell-based, human; conditions: inhibitor 5 minutes prior to 10 nM insulin, FIG. 5
Method: (§1) Control MCF-7 cells were serum-starved overnight and treated with the EGFR kinase inhibitor AG1478 (Sigma) or vehicle (DMSO) for 5 minutes prior to the addition of 14 nM EGF or 10 nM insulin (Sigma). After growth factor treatment, cell lysates were prepared and analyzed for ERK and Akt/PKB activation as described above. The 24-hour treatment was done in regular growth medium.

insulin receptor = assay: EGFR inhibitor study: insulin receptor level in MCF-7 cells; assay type: cell-based, human; conditions: 24-hour treatment in regular growth medium, FIG. 6
Method: as §1

insulin receptor (IR) [1] = molecular target: T1, insulin receptor (IR) (Homo sapiens, UniProt P06213); assay: IR expression and activation, Western immunoblot in MCF-7 cells; assay type: cell-based; parameters: whole-cell lysates were prepared at the indicated times and processed directly for Western immunoblots with anti-insulin receptor (IR); endogenous in cells; host or cells: MCF-7 (control and Herstatin-expressing clones)
Method: (§2) Western blot analysis, and antibodies. For Western blot analyses, whole-cell lysates or immunoprecipitated proteins were resolved by SDS-PAGE and transferred onto nitrocellulose membranes (BioRad, Hercules, Calif.). Blots were blocked in 5% milk and incubated with primary antibody overnight at 4° C. The antibodies included anti-insulin receptor (IR; against the β subunit), anti-IGF-IR, anti-IRS-1, anti-IRS-2, anti-phosphotyrosine, anti-phospho-Akt, anti-Akt, anti-phospho-ERK, anti-ERK, and anti-Shc antibodies (Santa Cruz Biotechnology, Transduction Laboratories, Cell Signaling Technologies, Upstate Laboratories, or Biosource). After washing, the blots were incubated with secondary antibody conjugated to HRP for 30 min (BioRad, Hercules, Calif.). The membranes were developed with SuperSignal™ West Dura (Pierce, Rockford, Ill.) and exposed to x-ray film.
Methods. Cell lines, expression vectors, protein purification, pull down assays, antibodies, Western blot analysis and ELISA assays were as described under EXAMPLE I, herein above. Insulin was added either to MCF-7 breast carcinoma cells, or to an MCF-7 cell line stably transfected with a Herstatin expression vector, to determine whether Herstatin expression affects IR expression, and/or insulin-stimulated IR signal transduction.
Results. […] Control and Herstatin-expressing MCF-7 cells were grown in complete medium prior to an overnight incubation in serum-free medium. Insulin was then added to the control and Herstatin-expressing cells and whole-cell lysates were prepared at the indicated times and processed directly for Western immunoblots with anti-insulin receptor (IR), phospho-Akt, Akt, phospho-ERK, and ERK antibodies, or first immunoprecipitated with anti-IR antibody and immunoprecipitates (IP) then analyzed by Western immunoblotting with anti-phosphotyrosine and anti-IR antibodies after transfer to nitrocellulose membranes. Following incubation of blots with primary antibodies, immunoreactive proteins were detected by enhanced chemiluminescence after a secondary incubation with HRP-conjugated secondary antisera. […]

insulin receptor (IR) [2] = molecular target: T1, insulin receptor (IR); assay: Herstatin cell binding ELISA on IRA-3T3 cells; parameters: expressed in transfected cells; host or cells: NIH-3T3 (IRA-3T3); conditions: 3T3 cells transfected with human IR cDNA (IRA-3T3), purified Herstatin from S2 insect cells, 2 hrs on ice
Method: (§3) ELISA. Monolayer cultures of ˜2×10^6 cells were plated in 6-well tissue culture plates, and were incubated with purified Herstatin for 2 hours at 4° C. in serum-free DMEM. Cells were washed with Phosphate Buffered Saline (PBS) and extracted in 50 mM Tris·HCl, pH 7.0, 1.0% NP-40. Herstatin bound to cells were quantified using a sandwich Herstatin ELISA per manufacturer's instructions (Upstate Biotechnology, Lake Placid, N.Y.).
(§4) The dissociation constant (KD) and maximal binding (Bmax) of Herstatin were determined by nonlinear regression analysis of the plot of pmol of bound versus nM of Herstatin added. Statistical comparisons between different binding curves were performed by extra sums-of-squares F-test nonlinear regression coefficients. All tests were performed (α=0.05) using GraphPad™ Prism 4™ software (GraphPad™ Software, 1994-2003).
(§5) Results. The interaction between Herstatin and IR was investigated. […] Increasing concentrations of Herstatin, expressed and purified from stably-transfected S2 insect cells, were added to 3T3 parental cells (filled triangles; “NIH-3T3”) or 3T3 cells transfected with a human IR cDNA (filled squares; “IRA-3T3”) as previously described (Shamieh et al., FEBS Letters, 568:163-166, 2004). After incubation for 2 hrs on ice, the cells were washed twice with PBS, and the bound Herstatin was quantified using a Herstatin ELISA (Upstate). […]

P13K/Akt pathway = assay: Insulin-stimulated Akt activation in MCF-7 cells; assay type: cell-based, human; conditions: Herstatin-expressing MCF-7 cells vs control
Method: as §2, with “After washing, the blots were incubated with secondary antibody conjugated to HRP for 30 min (BioRad, Hercules, Calif.). The membranes were developed with SuperSignal™ West Dura (Pierce, Rockford, Ill.) and exposed to x-ray film.” left out
Results. […] Insulin was then added to the control and Herstatin-expressing cells and whole-cell lysates were prepared at the indicated times and processed directly for Western immunoblots with anti-insulin receptor (IR), phospho-Akt, Akt, phospho-ERK, and ERK antibodies, or first immunoprecipitated with anti-IR antibody and immunoprecipitates (IP) then analyzed by Western immunoblotting with anti-phosphotyrosine and anti-IR antibodies after transfer to nitrocellulose membranes. Following incubation of blots with primary antibodies, immunoreactive proteins were detected by enhanced chemiluminescence after a secondary incubation with HRP-conjugated secondary antisera. […]

IGF-IR = molecular target: T2, IGF-IR (Homo sapiens, UniProt P08069); assay: IGF-IR expression, Western immunoblot in MCF-7 cells; assay type: cell-based; conditions: Herstatin-expressing MCF-7 cells vs control
T2 construct: Lysates from control and Herstatin-expressing MCF-7 cells were prepared from respective untreated (no insulin) cells; endogenous in cells; host or cells: MCF-7 (control and Herstatin-expressing clones)
Method: as §2
(§6) Results. […] Lysates from control and Herstatin-expressing MCF-7 cells were prepared from respective untreated (no insulin) cells following overnight incubation in serum-free media, and processed directly or (in the case of the IR) also immunoprecipitated prior to Western immunoblot analysis as described in relation to FIG. 2.

[3] = test system: IRS-1, IRS-2, Shc, ERK1 and ERK2; assay: Expression/phosphorylation state of insulin signaling proteins (IRS-1, IRS-2, Shc, ERK) in MCF-7 cells; assay type: cell-based, human; conditions: Herstatin-expressing MCF-7 cells vs control, no insulin
Method: as §2, §6

3T3 parental cells = assay: Herstatin cell binding ELISA on parental cells; conditions: NIH-3T3 parental cells, 2 hrs on ice
Method: as §3, §4, §5

[4] = Herstatin-expressing MCF-7 cells vs control MCF-7

COc1cccc(-c2cc(=O)c3ccccc3o2)c1N [PD-98059]
inhibition of insulin-stimulated glucose uptake (MAPK kinase (MEK)): significant inhibition

N#CC(=C(/N)Sc1ccccc1N)/C(C#N)=C(/N)Sc1ccccc1N [U-0216]
inhibition of insulin-stimulated glucose uptake (MAPK kinase (MEK)): significant inhibition

COc1cc2ncnc(Nc3cccc(Cl)c3)c2cc1OC [AS1478]
effect on insulin signaling (insulin signaling): did not affect insulin signaling | increase in insulin receptor (IR) (insulin receptor): does not Affect Insulin Signaling or Lead to an Increase in IR

Herstatin: secreted product of an HER-2 alternative transcript; cell surface receptor isoform (intron fusion protein), polypeptides of SEQ ID NO:2
accumulation of pro-IR (insulin receptor (IR) [1]; [4]): induce the accumulation of pro-IR | up-regulation of basal IR expression (insulin receptor (IR) [1]; [4]): several-fold | IR activation by insulin (insulin receptor (IR) [1]; Herstatin-expressing MCF-7 cells, insulin added after overnight serum-free, anti-phosphotyrosine blot of IR IP): up-regulated IR activation | Herstatin binding to cells expressing IR (insulin receptor (IR) [2]): binds at nM concentrations | effect on insulin-stimulated activation of the P13K/Akt pathway (P13K/Akt pathway): little effect | decrease in IGF-IR expression (IGF-IR): ~4 fold | IRS-2 levels [3]: slight decrease | apparent serine phosphorylation of IRS-2 [3]: decrease | apparent serine phosphorylation state of IRS-1 [3]: decrease | relative expression of Shc isoforms [3]: alters the relative expression of Shc isoforms | relative expression ratio of ERK1 and ERK2 [3]: increases the relative expression ratio of ERK1 and ERK2 | Herstatin binding to 3T3 parental cells (3T3 parental cells): but not to 3T3 parental cells
